The assay has as its target Human PDE9 (PDE9A2) (Homo sapiens (Human), UniProt O76083). The experiment in a line: PDE9 IMAP fluorescence polarization (FP) inhibition assay. The assay is classed as biochemical. The following applies: apparent inhibition constant; human PDE9A2, FAM-cGMP substrate 50 nM, room temperature. How it is done:
The activity of the compounds in accordance with the present invention as PDE9 inhibitors may be readily determined without undue experimentation using a fluorescence polarization (FP) methodology that is well known in the art (Huang, W., et al., J. Biomol Screen, 2002, 7:215).
In a typical experiment the PDE9 inhibitory activity of the compounds of the present invention was determined in accordance with the following experimental method.
Human PDE9 (PDE9A2, GenBank Accession No. NM_001001567), full length with N-terminal GST tag, was purchased from BPS Bioscience. The fluorescence polarization assay for cyclic nucleotide phosphodiesterases was performed using an IMAP® FP kit supplied by Molecular Devices, Sunnyvale, CA (product #R8139). IMAP® technology has been applied previously to phosphodiesterase assays (Huang, W., et al., J. Biomol Screen, 2002, 7:215). Assays were performed at room temperature in 384-well microtiter plates with an incubation volume of 20.2 μL. Solutions of test compounds were prepared in DMSO and serially diluted with DMSO to yield 8 μL of each of 10 solutions differing by 3-fold in concentration, at 32 serial dilutions per plate. 100% inhibition is determined using a known PDE9 inhibitor, such as 1-(2-chlorophenyl)-6-[(2R)-3,3,3-trifluoro-2-methylpropyl]-1,5-dihydro-4H-pyrazolo[3,4-d]pyrimidine-4-one (BAY 73-6691) (Wunder et al, Mol. Pharmacol., 2005, 68 (6): 1775-81), (6-[(3S,4S)-4-methyl-1-(pyrimidin-2-ylmethyl) pyrrolidin-3-yl]-1-(tetrahydro-2H-pyran-4-yl)-1,5-dihydro-4H-pyrazolo[3,4-d]pyrimidin-4-one (PF-04447943) (Wager et al., ACS Chemical Neuroscience, 2010, 1:435-449). 0% of inhibition is determined by using DMSO (1% final concentrations). A Labcyte Echo 555 (Labcyte, Sunnyvale, CA) is used to dispense 200 nL from each well of the titration plate to the 384 well assay plate. Human PDE9A2 membrane preps were diluted to 1 ng/ml. […] PDE9 enzyme mix and compounds were mixed and incubated at room temperature for 30 min. Following which, FAMcGMP substrate was added, shaken and incubated for an additional 60 min at room temperature. The final concentration of human PDE9 membrane preparations were 0.5 ng/ml. The final concentration of FAM-cGMP was 50 nM. After the incubation period, the enzymatic reaction was stopped by addition of binding solution (IMAP-FP, Molecular Devices, comprised of 80% Solution A, 20% Solution B and a 1:600 dilution of binding reagent) to each well. The plates were shaken then incubated at room temperature for 1 h prior to determining the fluorescence polarization (mP) using a Perkin Elmer En Vision™ plate reader (Waltham, MA).
Fluorescence polarization (mP) was calculated from the parallel(S) and perpendicular (P) fluorescence of each sample well and the analogous values for the median control well, containing only substrate (So and Po), using the following equation: […]
Dose-inhibition profiles for each compound were characterized by fitting the mP data to a four-parameter equation given below. The apparent inhibition constant (KI), the maximum inhibition at the low plateau relative to “100% Inhibition Control” (Imax; e.g. 1=>same as this control), the minimum inhibition at the high plateau relative to the “0% Inhibition Control” (Imin, e.g. 0=>same as the no drug control) and the Hill slope (nH) are determined by a non-linear least squares fitting of the mP values as a function of dose of the compound using an in-house software based on the procedures described by Mosser et al., JALA, 2003, 8:54-63, using the following equation: […]
An apparent (Km) for FAM-labeled […] of 150 nM was determined in separate experiments through simultaneous variation of substrate and selected drug concentrations.

This is an account of results in patent US20260001888A1, “PYRAZOLOPYRIMIDINE PDE9 INHIBITORS” (Merck Sharp & Dohme LLC, priority 2018, published 2026).

Sequence of Human PDE9 (PDE9A2) (O76083 other isoform, or with tags, fused parts or gaps): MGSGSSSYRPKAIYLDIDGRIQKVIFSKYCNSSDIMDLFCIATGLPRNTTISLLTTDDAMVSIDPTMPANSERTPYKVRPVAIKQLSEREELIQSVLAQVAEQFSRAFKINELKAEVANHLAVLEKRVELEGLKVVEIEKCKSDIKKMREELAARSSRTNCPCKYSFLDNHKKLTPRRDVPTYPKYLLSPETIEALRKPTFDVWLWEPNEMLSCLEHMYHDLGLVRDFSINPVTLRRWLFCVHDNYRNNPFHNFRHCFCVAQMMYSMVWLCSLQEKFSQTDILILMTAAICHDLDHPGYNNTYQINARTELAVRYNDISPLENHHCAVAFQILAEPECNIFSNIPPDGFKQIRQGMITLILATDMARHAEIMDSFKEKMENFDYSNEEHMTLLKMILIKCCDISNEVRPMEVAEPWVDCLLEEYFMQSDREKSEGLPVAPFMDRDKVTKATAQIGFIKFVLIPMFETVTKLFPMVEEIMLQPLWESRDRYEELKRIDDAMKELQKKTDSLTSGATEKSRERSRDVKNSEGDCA

`CCC(c1ncc(F)cn1)N(C)c1nc2c(c(C#N)nn2C(C)C2CCOCC2)c(=O)[nH]1` (single isomer, unassigned) [Example 39, 6-[1-(5-fluoropyrimidin-2-yl)propyl-methyl-amino]-4-oxo-1-(1-tetrahydropyran-4-ylethyl)-5H-pyrazolo[3,4-d]pyrimidine-3-carbonitrile]: the Ki is 0.17 nM. Take `CCC(c1ncc(F)cn1)N(C)c1nc2c(c(C#N)nn2C(C)C2CCOCC2)c(=O)[nH]1` (single isomer, unassigned) [Example 40, 6-[1-(5-fluoropyrimidin-2-yl)propyl-methyl-amino]-4-oxo-1-(1-tetrahydropyran-4-ylethyl)-5H-pyrazolo[3,4-d]pyrimidine-3-carbonitrile]: the Ki amounted to 33.2 nM. Turning to `C=CCCC(c1ncccn1)N(C)c1nc2c(c(C#N)nn2C(C)c2ccc(C(F)(F)F)nc2)c(=O)[nH]1` (single isomer, unassigned) [Example 41, 6-[methyl(1-pyrimidin-2-ylpent-4-enyl)amino]-4-oxo-1-[1-[6-(trifluoromethyl)-3-pyridyl]ethyl]-5H-pyrazolo[3,4-d]pyrimidine-3-carbonitrile], the Ki is 0.42 nM.

Consider `C=CCCC(c1ncccn1)N(C)c1nc2c(c(C#N)nn2C(C)c2ccc(C(F)(F)F)nc2)c(=O)[nH]1` (single isomer, unassigned) [Example 42, 6-[methyl(1-pyrimidin-2-ylpent-4-enyl)amino]-4-oxo-1-[1-[6-(trifluoromethyl)-3-pyridyl]ethyl]-5H-pyrazolo[3,4-d]pyrimidine-3-carbonitrile], for which the Ki was 13.2 nM. In the case of `C=CCCC(c1ncccn1)N(C)c1nc2c(c(C#N)nn2C(C)c2ccc(C(F)(F)F)nc2)c(=O)[nH]1` (single isomer, unassigned) [Example 43, 6-[methyl(1-pyrimidin-2-ylpent-4-enyl)amino]-4-oxo-1-[1-[6-(trifluoromethyl)-3-pyridyl]ethyl]-5H-pyrazolo[3,4-d]pyrimidine-3-carbonitrile], the Ki turned out to be 38.8 nM. Next, `C=CCCC(c1ncccn1)N(C)c1nc2c(c(C#N)nn2C(C)c2ccc(C(F)(F)F)nc2)c(=O)[nH]1` (single isomer, unassigned) [Example 44, 6-[methyl(1-pyrimidin-2-ylpent-4-enyl)amino]-4-oxo-1-[1-[6-(trifluoromethyl)-3-pyridyl]ethyl]-5H-pyrazolo[3,4-d]pyrimidine-3-carbonitrile]: 19.6 nM. Next, `CC(c1ccc(C(F)(F)F)nc1)n1nc(C#N)c2c(=O)[nH]c(N3CCC3c3ncccn3)nc21` (single isomer, unassigned) [Example 45, 4-oxo-6-(2-pyrimidin-2-ylazetidin-1-yl)-1-[1-[6-(trifluoromethyl)-3-pyridyl]ethyl]-5H-pyrazolo[3,4-d]pyrimidine-3-carbonitrile]: 0.23 nM. In the case of `CC(c1ccc(C(F)(F)F)nc1)n1nc(C#N)c2c(=O)[nH]c(N3CCC3c3ncccn3)nc21` (single isomer, unassigned) [Example 46, 4-oxo-6-(2-pyrimidin-2-ylazetidin-1-yl)-1-[1-[6-(trifluoromethyl)-3-pyridyl]ethyl]-5H-pyrazolo[3,4-d]pyrimidine-3-carbonitrile] it was 21.4 nM; in that of `CC(c1ccc(C(F)(F)F)nc1)n1nc(C#N)c2c(=O)[nH]c(N3CCC3c3ncccn3)nc21` (single isomer, unassigned) [Example 47, 4-oxo-6-(2-pyrimidin-2-ylazetidin-1-yl)-1-[1-[6-(trifluoromethyl)-3-pyridyl]ethyl]-5H-pyrazolo[3,4-d]pyrimidine-3-carbonitrile], 22.7 nM; in that of `CC(c1ccc(C(F)(F)F)nc1)n1nc(C#N)c2c(=O)[nH]c(N3CCC3c3ncccn3)nc21` (single isomer, unassigned) [Example 48, 4-oxo-6-(2-pyrimidin-2-ylazetidin-1-yl)-1-[1-[6-(trifluoromethyl)-3-pyridyl]ethyl]-5H-pyrazolo[3,4-d]pyrimidine-3-carbonitrile], 17.4 nM.

For the compound `CC(c1ccc(C(F)(F)F)nc1)n1nc(C#N)c2c(=O)[nH]c(N3CCC3c3ccc(F)cc3)nc21` (single isomer, unassigned) [Example 49, 6-[2-(4-fluorophenyl)azetidin-1-yl]-4-oxo-1-[1-[6-(trifluoromethyl)-3-pyridyl]ethyl]-5H-pyrazolo[3,4-d]pyrimidine-3-carbonitrile], the Ki was 22.7 nM. In the case of `CC(c1ccc(C(F)(F)F)nc1)n1nc(C#N)c2c(=O)[nH]c(N3CCC3c3ccc(F)cc3)nc21` (single isomer, unassigned) [Example 50, 6-[2-(4-fluorophenyl)azetidin-1-yl]-4-oxo-1-[1-[6-(trifluoromethyl)-3-pyridyl]ethyl]-5H-pyrazolo[3,4-d]pyrimidine-3-carbonitrile] it was 0.6 nM. Consider `CC(c1ccc(C(F)(F)F)nc1)n1nc(C#N)c2c(=O)[nH]c(N3CCC3c3ccc(F)cc3)nc21` (single isomer, unassigned) [Example 51, 6-[2-(4-fluorophenyl)azetidin-1-yl]-4-oxo-1-[1-[6-(trifluoromethyl)-3-pyridyl]ethyl]-5H-pyrazolo[3,4-d]pyrimidine-3-carbonitrile], for which the Ki was found to be 7.41 nM. In the case of `CC(c1ccc(C(F)(F)F)nc1)n1nc(C#N)c2c(=O)[nH]c(N3CCC3c3ccc(F)cc3)nc21` (single isomer, unassigned) [Example 52, 6-[2-(4-fluorophenyl)azetidin-1-yl]-4-oxo-1-[1-[6-(trifluoromethyl)-3-pyridyl]ethyl]-5H-pyrazolo[3,4-d]pyrimidine-3-carbonitrile] it was 6.7 nM; in that of `CC(c1ccc(C(F)(F)F)nc1)n1nc(C#N)c2c(=O)[nH]c(N3CCCC3c3ncccn3)nc21` (single isomer, unassigned) [Example 53, 4-oxo-6-(2-pyrimidin-2-ylpyrrolidin-1-yl)-1-[1-[6-(trifluoromethyl)-3-pyridyl]ethyl]-5H-pyrazolo[3,4-d]pyrimidine-3-carbonitrile], 207 nM. In the case of `CC(c1ccc(C(F)(F)F)nc1)n1nc(C#N)c2c(=O)[nH]c(N3CCCC3c3ncccn3)nc21` (single isomer, unassigned) [Example 54, 4-oxo-6-(2-pyrimidin-2-ylpyrrolidin-1-yl)-1-[1-[6-(trifluoromethyl)-3-pyridyl]ethyl]-5H-pyrazolo[3,4-d]pyrimidine-3-carbonitrile], the Ki amounted to 6.53 nM. Turning to `CC(c1ccc(C(F)(F)F)nc1)n1nc(C#N)c2c(=O)[nH]c(N3CCCC3c3ncccn3)nc21` (single isomer, unassigned) [Example 55, 4-oxo-6-(2-pyrimidin-2-ylpyrrolidin-1-yl)-1-[1-[6-(trifluoromethyl)-3-pyridyl]ethyl]-5H-pyrazolo[3,4-d]pyrimidine-3-carbonitrile], the Ki turned out to be 124 nM. Take `CC(c1ccc(C(F)(F)F)nc1)n1nc(C#N)c2c(=O)[nH]c(N3CCCC3c3ncccn3)nc21` (single isomer, unassigned) [Example 56, 4-oxo-6-(2-pyrimidin-2-ylpyrrolidin-1-yl)-1-[1-[6-(trifluoromethyl)-3-pyridyl]ethyl]-5H-pyrazolo[3,4-d]pyrimidine-3-carbonitrile]: the Ki came out at 289 nM. In the case of `CC(c1ccc(C(F)(F)F)nc1)n1nc(C#N)c2c(=O)[nH]c(N3CCC3c3ccc(F)cc3)nc21` (single isomer, unassigned) [Example 57, 6-[2-(4-fluorophenyl)azetidin-1-yl]-4-oxo-1-[1-[6-(trifluoromethyl)-3-pyridyl]ethyl]-5H-pyrazolo[3,4-d]pyrimidine-3-carbonitrile], the Ki came to 1.05 nM.
